Experimental data from publication PMC9589189, “The human odorant receptor OR10A6 is tuned to the pheromone of the commensal fruit fly Drosophila melanogaster” (iScience, 2022).
Where a chain is given by its changes, count along the chain named. Where two headings read alike, the source gives them in different places.

Columns and labels:
Experiment in all cases: GloSensor cAMP luminescence, HEK-293
Format in all cases: cell-based
OR2W1 [1] = target: T1, OR2W1 (Homo sapiens, UniProt Q9Y3N9)
T1 construct: full coding region from human genomic DNA in pFN210A, N-terminal IL-6-HaloTag; HEK-293 with RTP1S, G-alpha-olf, G-gamma-13, GloSensor-22F
T1 sequence (Q9Y3N9 1-320): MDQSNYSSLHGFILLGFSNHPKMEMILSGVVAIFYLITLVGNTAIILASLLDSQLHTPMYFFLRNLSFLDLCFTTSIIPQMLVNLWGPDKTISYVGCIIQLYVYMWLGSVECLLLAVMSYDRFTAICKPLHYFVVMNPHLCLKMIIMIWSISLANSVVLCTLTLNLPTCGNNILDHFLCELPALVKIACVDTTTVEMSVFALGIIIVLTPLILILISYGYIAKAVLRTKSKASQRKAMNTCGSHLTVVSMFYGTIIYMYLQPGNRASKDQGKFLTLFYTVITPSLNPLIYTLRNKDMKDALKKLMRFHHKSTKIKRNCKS
Excerpt: (§1) GloSensor cAMP luminescence, HEK-293 on OR2W1

OR2W1 [2] = target: T2, OR2W1 (Homo sapiens, UniProt Q9Y3N9, M81V)
T2 construct: full coding region from human genomic DNA in pFN210A, N-terminal IL-6-HaloTag; HEK-293 with RTP1S, G-alpha-olf, G-gamma-13, GloSensor-22F
T2 sequence (Q9Y3N9 1-320 M81V): T1 sequence (Q9Y3N9 1-320) with M81V
Excerpt: as §1

OR2W1 [3] = target: T3, OR2W1 (Homo sapiens, UniProt Q9Y3N9, D296N)
T3 construct: full coding region from human genomic DNA in pFN210A, N-terminal IL-6-HaloTag; HEK-293 with RTP1S, G-alpha-olf, G-gamma-13, GloSensor-22F
T3 sequence (Q9Y3N9 1-320 D296N): T1 sequence (Q9Y3N9 1-320) with D296N
Excerpt: as §1

OR10A6 [4] = target: T4, OR10A6 (Homo sapiens, UniProt Q8NH74)
T4 construct: full coding region from human genomic DNA in pFN210A, N-terminal IL-6-HaloTag; HEK-293 with RTP1S, G-alpha-olf, G-gamma-13, GloSensor-22F
T4 sequence (Q8NH74 1-314): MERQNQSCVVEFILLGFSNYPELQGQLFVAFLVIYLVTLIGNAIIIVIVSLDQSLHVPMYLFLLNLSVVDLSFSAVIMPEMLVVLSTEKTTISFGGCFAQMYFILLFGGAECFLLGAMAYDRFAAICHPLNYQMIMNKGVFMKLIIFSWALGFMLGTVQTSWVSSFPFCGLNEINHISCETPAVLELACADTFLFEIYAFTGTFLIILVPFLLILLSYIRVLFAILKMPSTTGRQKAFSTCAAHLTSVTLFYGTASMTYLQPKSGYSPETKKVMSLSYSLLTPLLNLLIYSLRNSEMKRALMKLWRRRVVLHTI
Excerpt: (§2) GloSensor cAMP luminescence, HEK-293 on OR10A6

OR10A6 [5] = target: T5, OR10A6 (Homo sapiens, UniProt Q8NH74, L287P)
T5 construct: full coding region from human genomic DNA in pFN210A, N-terminal IL-6-HaloTag; HEK-293 with RTP1S, G-alpha-olf, G-gamma-13, GloSensor-22F
T5 sequence (Q8NH74 1-314 L287P): T4 sequence (Q8NH74 1-314) with L287P
Excerpt: as §2

OR10A6 [6] = target: T6, OR10A6 (Homo sapiens, UniProt Q8NH74, A117V/L287P/V140G)
T6 construct: full coding region from human genomic DNA in pFN210A, N-terminal IL-6-HaloTag; HEK-293 with RTP1S, G-alpha-olf, G-gamma-13, GloSensor-22F
T6 sequence (Q8NH74 1-314 A117V/V140G/L287P): T4 sequence (Q8NH74 1-314) with A117V, V140G, L287P
Excerpt: as §2

[7] = read-out: Z4-11Al EC50 [μmol/L] ^a

| SMILES | EC50 (OR2W1 [1]; read-out: Z4-9Al) | EC50 (OR2W1 [2]; read-out: Z4-9Al) | EC50 (OR2W1 [3]; read-out: Z4-9Al) | EC50 (OR10A6 [4]) | EC50 (OR10A6 [5]; read-out: Z4-9Al) | EC50 (OR10A6 [6]) | EC50 (OR2W1 [1]; [7]) | EC50 (OR2W1 [2]; read-out: EC50) | EC50 (OR2W1 [3]; [7]) | EC50 (OR10A6 [5]; [7]) | EC50 (OR2W1 [1]; read-out: Z6-11Al) | EC50 (OR2W1 [3]; read-out: Z6-11Al) | EC50 (OR10A6 [5]; read-out: Z6-11Al) |
| --- | --- | --- | --- | --- | --- | --- | --- | --- | --- | --- | --- | --- | --- |
| CCCC/C=C\CCC=O [Z4-9Al, (Z)-4-nonenal] | 119 ± 23.1 µmol/L | 142 ± 92.4 µM | 91.8 ± 46.2 µmol/L | > 1000 µM | 41.1 ± 14.2 µmol/L | > 1000 µM | – | – | – | – | – | – | – |
| CCCCCC/C=C\CCC=O [Z4-11Al, (Z)-4-undecenal] | – | – | – | > 1000 µM | – | > 1000 µM | 65.1 ± 35.8 µmol/L | > 1000 µM | 40.4 ± 12 µmol/L | 28.2 ± 12.6 µmol/L | – | – | – |
| CCCC/C=C\CCCCC=O [Z6-11Al, (Z)-6-undecenal] | – | – | – | > 1000 µM | – | > 1000 µM | – | > 1000 µM | – | – | 104 ± 27 µmol/L | 138 ± 55 µmol/L | 34.8 ± 9.21 µmol/L |
